Data published in patent publication US20240299562A1 (priority 2020, published 2024).
Like-named read-outs stand apart in the source and are kept apart here. *1 amine or outer side, *2 acyl side, *3 side chain or, on linkers, in order; H or OH if unused. Where a SMILES comes first, the peptide text is derived from it. [ ]: non-standard residue; d: D form. The star is where a group is joined. X1 = CO[C@@H](C1CCCN1[*:1])[C@@H](C)C(=O)[*:2]; Dil = CC[C@H](C)[C@H](NC)[C@@H](CC(=O)O)OC; PABC = O=C(OCc1ccc(N[*:1])cc1)[*:2]; Phosphonoacetyl = O=C(CP(=O)(O)O)*; X2 = C[C@@H](N*)[C@@H](O)c1ccccc1; NMeV = CN[C@H](C(=O)O)C(C)C

Assays:
U-87 MG cells = experiment: WST-1 cell viability, U-87 MG glioblastoma cells; format: cell-based; details: for IC50: read-out: Absolute IC50
Experimental: (§1) All commercial cell lines were purchased at ATCC (LGC Standards SARL, France). Cells were seeded in 96-well plates according to their optimal seeding density, varying between 5.000 and 10.000 cells/well. After attachment overnight, 10-point serial titrations (1:5) were prepared in their equivalent complete media as recommended by ATCC, starting from the 10 mM stock solutions. For doxorubicin comprising prodrugs dilutions started from 100 μM, while for the parent compound doxorubicin dilutions started at 10 μM. […] Seventy-two hours later, compounds were removed together with the supernatants and cells were washed once with PBS to remove excess drugs.
(§2) The WST-1 assay for cell proliferation and viability (Roche, Switzerland) was performed according to manufacturer's protocol. Absorbances were measured at 4 hrs using a Perkin Elmer Ensight multiplate reader, equipped with Kaleido 2.0 software (Perkin Elmer, USA). Cell viability was expressed as a percentage compared to non-treated cells. Absolute IC50 values were extrapolated from a non-linear fitting following the Sigmoidal-4PL regression method using Graphpad Prism 7.0. Likewise, maximal efficacy was determined as 100% minus the cell viability determined when cells are incubated in the presence of a compound. For instance, if 20% of the cells survive incubation in the presence of a compound, then the maximal efficacy of that compound is 100%-20%=80%.
(§3) Selectivity indices (SI) were defined as the ratio of the concentration of drug required to kill 50% of the cells in normal (control, non-cancer) cells, divided by the concentration required to exert the same efficacy in tumor cells: SI=IC50 (control cell)/IC50 (cancer cell), or SI=^HME-1IC50/cancer IC50.

A2780 Cp cells = experiment: WST-1 cell viability, A2780 CpR (cisplatin resistant) ovarian cancer cells; format: cell-based
Experimental: as §1, §2, §3

HME-1 cells = experiment: WST-1 cell viability, normal HME-1 cells; format: cell-based, human; details: for IC50: read-out: Absolute IC50
Experimental: as §1, §2, §3

[1] = WST-1 cell viability, normal HME-1 cells; format: cell-based, human; details: human
Experimental: as §1, §2, §3

LS 174T cells = experiment: WST-1 cell viability, LS 174T colorectal cancer cells; format: cell-based
Experimental: as §1, §2, §3

DU145 cells = experiment: WST-1 cell viability, DU145 prostate cancer cells; format: cell-based
Experimental: as §1, §2, §3

MDA-MB-231 cells = experiment: WST-1 cell viability, MDA-MB-231 triple negative breast cancer cells; format: cell-based; details: for IC50: read-out: Absolute IC50
Experimental: as §1, §2, §3

MDA-MB-468 cells = experiment: WST-1 cell viability, MDA-MB-468 triple negative breast cancer cells; format: cell-based
Experimental: as §1, §2, §3

[2] = test system: U87 MG glioblastoma cells subcutaneously implanted in nude NMRI mice; experiment: In vivo activity of PhAc-ALLP-Dox on U87 MG glioblastoma xenograft; design: species or system mouse; details: 5 mg/kg iv, once per week
Experimental: The in vivo efficacy of PhAc-ALLP-Dox was tested in a mouse GBM model. U87 MG glioblastoma cells were subcutaneously (SC) implanted in nude NMRI mice. In total, 32 adult (9-10 weeks old) nude female NMRI mice (Janvier, France) were subjected to SC tumor cell grafting in the right flank. In total, 5×10^6 U87 MG cells resuspended in PBS plus Matrigel (1:1) were injected in 200 uL final volume. As soon as the tumors were palpable and reached the volume of 200 mm3 the treatment was started. At day zero, mice were randomly divided into 4 groups, based on the tumor volume, in order to have the following experimental sub-cohorts: • control group receiving the vehicle (PBS pH7.2) with a dose of 5 ml/kg, intravenously (iv), once per week (QW); • PhAc-ALLP-Dox (30 mg/kg iv, QW); • PhAc-ALGP-Dox (154 mg/kg iv, QW); • Dox (5 mg/kg iv, QW).
Treatments were performed once per week for a total of four tail vein administrations/injections (on days 1, 7, 14 and 21). One extra week of observation followed the active treatment phase. During the experiment, tumor volume was measured two times a week and was assessed three-dimensionally with a digital caliper (Mitutoyo, Illinois) using the following formula:
V=4/3π×[(d/2)^2×(D/2)], where d is the minor tumor axis and D is the major tumor axis.

NCI-H292 cells = experiment: WST-1 cell viability, NCI-H292 lung cancer cells; format: cell-based
Experimental: as §1, §2, §3

A2058 cells = experiment: WST-1 cell viability, A2058 melanoma cells; format: cell-based; details: for IC50: read-out: Absolute IC50
Experimental: as §1, §2, §3

A2780 cells = experiment: WST-1 cell viability, A2780 ovarian cancer cells; format: cell-based
Experimental: as §1, §2, §3

A-172 cells = experiment: WST-1 cell viability, A-172 glioblastoma cells; format: cell-based; details: for IC50: read-out: Absolute IC50
Experimental: as §1, §2, §3

[3] = test system: Human umbilical vein endothelial cells (HUVEC); experiment: WST-1 cell viability, normal HUVEC cells; format: cell-based; details: 72 hrs
Experimental: as §1, §2, §3

COc1cccc2c1C(=O)c1c(O)c3c(c(O)c1C2=O)C[C@@](O)(C(=O)CO)C[C@@H]3O[C@H]1C[C@H](N)[C@H](O)[C@H](C)O1 [Doxorubicin, reference compound]
cytotoxicity at 100 µM (U-87 MG cells; Homo sapiens, U-87 MG, 72 h, read-out: Maximal efficacy, cytotoxicity (%) at 100 μM): 71.8% | IC50 (U-87 MG cells; Homo sapiens, U-87 MG (GBM), 72 hrs, WST-1 (Table 1)): 70 nM | SI = HME-1 IC50/cancer IC50 (U-87 MG cells; U-87 MG (GBM) vs HME-1 (Table 3)): 0.59 | cytotoxicity at 100 µM (A2780 Cp cells; A2780C/P, A2780 Cp (OvC), 72 hrs, WST-1 (Table 2), read-out: Maximal efficacy, cytotoxicity (%) at 100 μM): 94.8% | IC50 (A2780 Cp cells; A2780C/P, A2780 Cp (OvC, cisplatin resistant), 72 hrs, WST-1 (Table 1), read-out: Absolute IC50): 80 nM | SI = HME-1 IC50/cancer IC50 (A2780 Cp cells; A2780 Cp (OvC) vs HME-1 (Table 3)): 0.57 | SI = HME-1 IC50/cancer IC50 (HME-1 cells; HME-1 normal cells against themselves (Table 3)): 1.00 | IC50 (HME-1 cells; Homo sapiens, HME1, HME-1 normal cells, 72 hrs continuous drug exposure, WST-1 (Table 1)): 40 nM | cytotoxicity at 72 h, 100 µM [1]: 96.5% | IC50 (LS 174T cells; Homo sapiens, LS174T, LS 174T (CrC), 72 hrs, WST-1 (Table 1), read-out: Absolute IC50): 10 nM | cytotoxicity at 100 µM (LS 174T cells; Homo sapiens, LS174T, LS 174T (CrC), 72 hrs, WST-1 (Table 2), read-out: Maximal efficacy, cytotoxicity (%) at 100 μM): 93.7% | SI = HME-1 IC50/cancer IC50 (LS 174T cells; LS 174T (CrC) vs HME-1 (Table 3)): 4.47 | SI = HME-1 IC50/cancer IC50 (DU145 cells; DU145 (PrC) vs HME-1 (Table 3)): 1.55 | IC50 (DU145 cells; Homo sapiens, DU-145, DU145 (PrC), 72 hrs, WST-1 (Table 1), read-out: Absolute IC50): 30 nM | cytotoxicity at 100 µM (DU145 cells; Homo sapiens, DU-145, DU145 (PrC), 72 hrs, WST-1 (Table 2), read-out: Maximal efficacy, cytotoxicity (%) at 100 μM): 92.5% | cytotoxicity at 100 µM (MDA-MB-231 cells; Homo sapiens, MDA-MB-231, 72 h, read-out: Maximal efficacy, cytotoxicity (%) at 100 μM): 91.5% | IC50 (MDA-MB-231 cells; Homo sapiens, MDA-MB-231 (TNBC), 72 hrs, WST-1 (Table 1)): 120 nM | SI = HME-1 IC50/cancer IC50 (MDA-MB-231 cells; MDA-MB-231 (TNBC) vs HME-1 (Table 3)): 0.38 | IC50 (MDA-MB-468 cells; Homo sapiens, MDA-MB-468 (TNBC), 72 hrs, WST-1 (Table 1), read-out: Absolute IC50): < 10 nM | cytotoxicity at 100 µM (MDA-MB-468 cells; Homo sapiens, MDA-MB-468 (TNBC), 72 hrs, WST-1 (Table 2), read-out: Maximal efficacy, cytotoxicity (%) at 100 μM): 95.5% | SI = HME-1 IC50/cancer IC50 (MDA-MB-468 cells; MDA-MB-468 (TNBC) vs HME-1 (Table 3)): 12.64 | Tumor growth [2]: significantly reduced tumor growth | IC50 (NCI-H292 cells; Homo sapiens, NCI-H292 (NSCLC), 72 hrs, WST-1 (Table 1), read-out: Absolute IC50): 30 nM | cytotoxicity at 100 µM (NCI-H292 cells; Homo sapiens, NCI-H292 (NSCLC), 72 hrs, WST-1 (Table 2), read-out: Maximal efficacy, cytotoxicity (%) at 100 μM): 90.4% | SI = HME-1 IC50/cancer IC50 (NCI-H292 cells; NCI-H292 (NSCLC) vs HME-1 (Table 3)): 1.62 | SI = HME-1 IC50/cancer IC50 (A2058 cells; A2058 (Melanoma) vs HME-1 (Table 3)): 0.11 | cytotoxicity at 100 µM (A2058 cells; Homo sapiens, A2058, 72 h, read-out: Maximal efficacy, cytotoxicity (%) at 100 μM): 97% | IC50 (A2058 cells; Homo sapiens, A2058 (Melanoma), 72 hrs, WST-1 (Table 1)): 410 nM | SI = HME-1 IC50/cancer IC50 (A2780 cells; A2780 (OvC) vs HME-1 (Table 3)): 9.15 | IC50 (A2780 cells; Homo sapiens, A2780 (OvC), 72 hrs, WST-1 (Table 1), read-out: Absolute IC50): < 10 nM | cytotoxicity at 100 µM (A2780 cells; Homo sapiens, A2780 (OvC), 72 hrs, WST-1 (Table 2), read-out: Maximal efficacy, cytotoxicity (%) at 100 μM): 96% | SI = HME-1 IC50/cancer IC50 (A-172 cells; A-172 (GBM) vs HME-1 (Table 3)): 0.01 | cytotoxicity at 100 µM (A-172 cells; Homo sapiens, A 172, 72 h, read-out: Maximal efficacy, cytotoxicity (%) at 100 μM): 89.9% | IC50 (A-172 cells; Homo sapiens, A-172 (GBM), 72 hrs, WST-1 (Table 1)): 3360 nM

CC[C@H](C)[C@@H]([C@@H](CC(=O)N1CCCC1[C@H](OC)[C@@H](C)C(=O)N[C@H](C)[C@@H](O)c1ccccc1)OC)N(C)C(=O)[C@@H](NC(=O)[C@H](C(C)C)N(C)C(=O)OCc1ccc(NC(=O)[C@@H]2CCCN2C(=O)[C@H](CC(C)C)NC(=O)[C@H](CC(C)C)NC(=O)[C@H](C)NC(=O)CP(=O)(O)O)cc1)C(C)C (stereo partly drawn) [PhAc-ALLP-PABC-MMAE] (Phosphonoacetyl-ALLP[PABC][NMeV]V[Dil][X1]-X2)
SI = HUVEC IC50 / cancer IC50 (U-87 MG cells; U-87 MG (GBM), * towards HUVEC cells (Table 6)): *2.4 | SI = iAstro IC50 / cancer IC50 (U-87 MG cells; U-87 MG (GBM), ** towards hiPSCs (iAstro) (Table 6)): **>500 | SI = normal IC50 / cancer IC50 (U-87 MG cells; U-87 MG (GBM), selectivity towards HME-1 cells (Table 6)): 0.1 | IC50 (U-87 MG cells; U-87 MG (GBM), 72 hrs, WST-1 (Table 4)): 70 nM | Maximal efficacy (U-87 MG cells; U-87 MG (GBM), 72 hrs, WST-1 (Table 5)): 86.6% | Toxicity compared to MMAE on mammary epithelial (HME-1) cells (HME-1 cells; HME-1 normal cells): not significantly different | IC50 (HME-1 cells; HME-1 normal cells, 72 hrs, WST-1 (Table 4)): 10 nM | Maximal efficacy (HME-1 cells; HME-1 normal cells, 72 hrs, WST-1, cytotoxicity at highest concentration (Table 5)): 99.5% | SI = normal IC50 / cancer IC50 (MDA-MB-231 cells; MDA-MB-231 (TNBC), selectivity towards HME-1 cells (Table 6)): 0.2 | IC50 (MDA-MB-231 cells; MDA-MB-231 (TNBC), 72 hrs, WST-1 (Table 4)): 40 nM | Maximal efficacy (MDA-MB-231 cells; MDA-MB-231 (TNBC), 72 hrs, WST-1 (Table 5)): 77.6% | IC50 ([3]; WST-1 (Table 4), read-out: Absolute IC50): 170 nM | Maximal efficacy ([3]; WST-1 (Table 5)): 98.1% | SI = normal IC50 / cancer IC50 (A2058 cells; A2058 (Melanoma), selectivity towards HME-1 cells (Table 6)): 0.3 | IC50 (A2058 cells; A2058 (Melanoma), 72 hrs, WST-1 (Table 4)): 30 nM | Maximal efficacy (A2058 cells; A2058 (Melanoma), 72 hrs, WST-1 (Table 5)): 95.2% | SI = HUVEC IC50 / cancer IC50 (A-172 cells; A-172 (GBM), * towards HUVEC cells (Table 6)): *1.9 | SI = iAstro IC50 / cancer IC50 (A-172 cells; A-172 (GBM), ** towards hiPSCs (iAstro) (Table 6)): **>500 | SI = normal IC50 / cancer IC50 (A-172 cells; A-172 (GBM), selectivity towards HME-1 cells (Table 6)): 0.1 | IC50 (A-172 cells; A-172 (GBM), 72 hrs, WST-1 (Table 4)): 90 nM | Maximal efficacy (A-172 cells; A-172 (GBM), 72 hrs, WST-1 (Table 5)): 97.4% | Selectivity index determined on HUVECs, GBM (A-172 cells; GBM indication as a whole (A-172 and U-87 MG), vs HUVEC): 2.2 | Selectivity index towards hiPSC-derived astrocytes, GBM (A-172 cells; GBM indication as a whole (A-172 and U-87 MG), vs iAstro): > 10
